Results: patent US20110136777A1, “CRYSTALLINE SODIUM SALT OF CEPHALOSPORIN ANTIBIOTIC” (Orchid Chemicals and Pharmaceuticals Limited, priority 2008, published 2011)
Read-outs that look alike come from different tables or passages of the source.

What was measured:
[1] = Stability over shelf life (statement in words); conditions: over the shelf life period
Tapped bulk density = type: physicochemical
[2] = Hygroscopic nature of the solid; type: physicochemical
[3] = Stability at 25 ± 2° C. & 60 ± 5% RH; type: physicochemical; conditions: for Assay: in % (unit assumed)
Description: (§1) In still another embodiment of the present invention, novel anhydrous crystalline polymorph of Ceftiofur sodium (Form A) of formula (I) having the following X-ray diffraction characteristic peaks (±0.2°2θ): 5.68, 6.54, 8.84, 12.82, 13.16, 16.33, 17.36, 18.71, 18.94, 20.25, 21.53, 22.11, 22.79, 24.44, 24.88, 25.46, and 27.00 in °2θ. The anhydrous crystalline Ceftiofur sodium of the present invention has moisture content in the range of 0.4 to 2.0%. The anhydrous Ceftiofur sodium (Form A) is prepared by drying the Ceftiofur sodium either under vacuum or under normal pressure at a temperature in the range of 60-125° C. till the moisture content reaches 0.4 to 2.0%. The moisture content of Ceftiofur sodium is measured by using Karl-Fisher technique. The following tables (Table 2 & 3) provide stability data of anhydrous crystalline Ceftiofur Sodium (Form A) prepared according to this invention. From this table it is evident that the anhydrous crystalline Ceftiofur Sodium prepared according this invention is very stable and highly pure, which is clearly indicated by total RS (Related substances) analysis & the stability data.

[4] = Stability at 40 ± 2° C. & 75 ± 5% RH; type: physicochemical; conditions: for Assay: in % (unit assumed)
Description: as §1

With CO/N=C(\C(=O)N[C@@H]1C(=O)N2C(C(=O)[O-])=C(CSC(=O)c3ccco3)CS[C@H]12)c1csc(N)n1.[Na+] [Amorphous, Ceftiofur sodium, reference compound] the Stability ([1]; listed as amorphous Ceftiofur sodium) was “less stable”, the “Tapped Bulk density” value (Tapped bulk density) was 0.5 g/mL and the “Nature (hygroscopicity)” value ([2]; listed as conventional amorphous Ceftiofur sodium) was “highly hygroscopic”.

With CO/N=C(\C(=O)N[C@@H]1C(=O)N2C(C(=O)[O-])=C(CSC(=O)c3ccco3)CS[C@H]12)c1csc(N)n1.[Na+] [Form A, Ceftiofur sodium] the Moisture Content ([3]; 3 Months) was 1.05%, the Total RS (Related substances) ([3]; 3 Months) was 0.16% and the Assay ([3]; 3 Months) was 98.84. The Moisture Content ([3]; 6 month) was 1.11%, the Total RS (Related substances) ([3]; 6 month) was 0.21% and the Assay ([3]; 6 month) was 99.47. It also gave a Moisture Content ([3]; Initial) of 1.05%, a Total RS (Related substances) ([3]; Initial) of 0.15% and an Assay ([3]; Initial) of 99.74. For the same compound, the Stability [1] was “good”, the Moisture Content ([4]; 3 Months) was 1.08% and the Total RS (Related substances) ([4]; 3 Months) was 0.19%. For the same compound, the Assay ([4]; 3 Months) was 98.14, the Moisture Content ([4]; 6 month) was 1.54% and the Total RS (Related substances) ([4]; 6 month) was 0.33%. The Assay ([4]; 6 month) was 98.64, the Moisture Content ([4]; Initial) was 1.05% and the Total RS (Related substances) ([4]; Initial) was 0.15%. The Assay ([4]; Initial) was 99.74, the “Tapped Bulk density” value (Tapped bulk density) was 0.7 g/mL and the “Nature (hygroscopicity)” value [2] was “Non-Hygroscopic”. For the same compound, the “Nature (hygroscopicity)” value ([2]; listed as anhydrous crystalline Ceftiofur sodium) was “non-hygroscopic”.
